Measurements published in PubChem BioAssay AID1919015 (Molecular Pharmacology Branch, DTP, NCI, 2023).

System: OVCAR-5 complex spheroids with HUVEC/MSC, viability, % test/control
Test: Anticancer human tumor OVCAR-5 cell line growth inhibition [AhR];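 note: spheroids exposed to compounds for 7 days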;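 for viability, T/C: 100% = DMSO vehicle control wells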
Conditions: for IC50: curve of first compound; for viability, T/C: stronger effect = lower value
In short: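 Spheroids combined tumor cells with HUVEC endothelial cells and human MSCs as stroma. AhR antagonists were paired with standard or investigational drugs, each dosed in half-log steps down from near clinical Cmax, or from 10 microM where Cmax was unknown.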

`CC(C)c1c(-c2ccccc2)nc2c(C#N)c[nH]n2c1=O` + Cc1cncc(-c2nc(NCCc3c[nH]c4ccccc34)c3ncn(C(C)C)c3n2)c1 was tested, and the IC50 (second compound 0.1 µM) was over 10 µM, the IC50 (second compound 0.316 µM) was over 10 µM and the IC50 (second compound 1 µM) was over 10 µM. The IC50 (second compound 3.16 µM) was over 10 µM, the IC50 (second compound 10 µM) was under 0.0316 µM and the viability, T/C (second compound 0.1 µM, first compound 0.0316 µM) was 100%. It also gave a viability, T/C (second compound 0.1 µM, first compound 0.1 µM) of 99.5%, a viability, T/C (second compound 0.1 µM, first compound 0.316 µM) of 100% and a viability, T/C (second compound 0.1 µM, first compound 1 µM) of 100%. It also gave a viability, T/C (second compound 0.1 µM, first compound 3.16 µM) of 96.4%, a viability, T/C (second compound 0.1 µM, first compound 10 µM) of 106% and a viability, T/C (second compound 0.316 µM, first compound 0.0316 µM) of 101%. It also gave a viability, T/C (second compound 0.316 µM, first compound 0.1 µM) of 103%, a viability, T/C (second compound 0.316 µM, first compound 0.316 µM) of 98.5% and a viability, T/C (second compound 0.316 µM, first compound 1 µM) of 102%. For the same compound, the viability, T/C (second compound 0.316 µM, first compound 3.16 µM) was 95.2%, the viability, T/C (second compound 0.316 µM, first compound 10 µM) was 106% and the viability, T/C (second compound 1 µM, first compound 0.0316 µM) was 96.8%. It also gave a viability, T/C (second compound 1 µM, first compound 0.1 µM) of 99.1%, a viability, T/C (second compound 1 µM, first compound 0.316 µM) of 100% and a viability, T/C (second compound 1 µM, first compound 1 µM) of 94.1%. It also gave a viability, T/C (second compound 1 µM, first compound 3.16 µM) of 94.8%, a viability, T/C (second compound 1 µM, first compound 10 µM) of 103% and a viability, T/C (second compound 3.16 µM, first compound 0.0316 µM) of 81.5%. It also gave a viability, T/C (second compound 3.16 µM, first compound 0.1 µM) of 84.1%, a viability, T/C (second compound 3.16 µM, first compound 0.316 µM) of 86.1% and a viability, T/C (second compound 3.16 µM, first compound 1 µM) of 83.6%. The viability, T/C (second compound 3.16 µM, first compound 3.16 µM) was 90.1%, the viability, T/C (second compound 3.16 µM, first compound 10 µM) was 88.7% and the viability, T/C (second compound 10 µM, first compound 0.0316 µM) was 14.2%. The viability, T/C (second compound 10 µM, first compound 0.1 µM) was 14.2%, the viability, T/C (second compound 10 µM, first compound 0.316 µM) was 17.8% and the viability, T/C (second compound 10 µM, first compound 1 µM) was 16.3%. The viability, T/C (second compound 10 µM, first compound 3.16 µM) was 16% and the viability, T/C (second compound 10 µM, first compound 10 µM) was 25.1%.
